Assay results: patent publication US20250129070A1, “BIFUNCTIONAL ANDROGEN RECEPTOR COMPOUNDS” (priority 2023, published 2025)

Tests used:
AR / CBP ternary complex = experiment: Ternary complex formation assay (sandwich ELISA, AR capture / CBP detection) in VCaP cell lysates; format: cell-based; settings: 1.5 hours treatment, sandwich ELISA (AR capture, CBP or p300 detection)
How it was run: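 VCaP cells (50K/well, 5% charcoal-stripped FBS, ≥3 days) treated with bifunctional compound for 1.5 h, then lysed 30 min at 4 °C. AR captured on anti-AR (AR 441) plates; bound CBP or p300 detected by rabbit mAb plus HRP secondary. QuantaRed chemifluorescence read at ex 570/em 585, immediately and at 5 and 15 min.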

VCaP cells = experiment: VCaP growth inhibition assay; format: cell-based; settings: 30 pM R1881, 9 days, CTG
How it was run: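 VCaP cells in phenol red-free DMEM/5% CSS, pre-incubated 72 h, then stimulated with R1881 (final 30 pM) and treated with 1:5 serial dilutions (final 100 nM to 10 fM) for 9 days at 37 °C. Viability by CellTiter-Glo luminescence; IC50 from 4-parameter logistic fit of RLU vs concentration.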

SMILES | EC50 (AR / CBP ternary complex) | IC50 (VCaP cells)
CC(=O)N1CCc2c(c(-c3cccc4cc(-c5ccc(CC6CC7(C6)CN(c6ncc(C(=O)NC8C(C)(C)C(Oc9ccc(C#N)c(Cl)c9)C8(C)C)cn6)C7)nc5)ncc34)nn2C2CCOCC2)C1 (stereo not drawn) [Compound 228, 2-[6-[[5-[8-(5-acetyl-1-tetrahydropyran-4-yl-6,7-dihydro-4H-pyrazolo[4,3-c]pyridin-3-yl)-3-isoquinolyl]-2-pyridyl]methyl]-2-azaspiro[3.3]heptan-2-yl]-N-[3-(3-chloro-4-cyano-phenoxy)-2,2,4,4-tetramethyl-cyclobutyl]pyrimidine-5-carboxamide] | 1 to 10 nM | 0.1 to 1 nM
COc1cc(OC2C(C)(C)C(NC(=O)c3ccc(N4CC5(CCC(C6CCC(n7nc(N8CCCc9cc(-c%10cnn(C)c%10)c(C(F)F)cc98)c8c7CCN(C(C)=O)C8)CC6)CC5)C4)cc3)C2(C)C)ccc1C#N (stereo not drawn) [Compound 378, 4-[7-[4-[5-acetyl-3-[7-(difluoromethyl)-6-(1-methylpyrazol-4-yl)-3,4-dihydro-2H-quinolin-1-yl]-6,7-dihydro-4H-pyrazolo[4,3-c]pyridin-1-yl]cyclohexyl]-2-azaspiro[3.5]nonan-2-yl]-N-[3-(4-cyano-3-methoxy-phenoxy)-2,2,4,4-tetramethyl-cyclobutyl]benzamide] | 1 to 10 nM | 1 to 100 nM
COC1CN(c2ncc(C(=O)NC3C(C)(C)C(Oc4ccc(C#N)c(Cl)c4)C3(C)C)cn2)CCC1CN1CCC(n2nc(N3CCCc4cc(-c5cnn(C)c5)c(C(F)F)cc43)c3c2CCN(C(C)=O)C3)CC1 (stereo not drawn) [Compound 329, 2-[4-[[4-[5-acetyl-3-[7-(difluoromethyl)-6-(1-methylpyrazol-4-yl)-3,4-dihydro-2H-quinolin-1-yl]-6,7-dihydro-4H-pyrazolo[4,3-c]pyridin-1-yl]-1-piperidyl]methyl]-3-methoxy-1-piperidyl]-N-[3-(3-chloro-4-cyano-phenoxy)-2,2,4,4-tetramethyl-cyclobutyl]pyrimidine-5-carboxamide] | < 1 nM | ≤ 0.1 nM
COc1cc(OC2C(C)(C)C(NC(=O)c3ccc(N4CC(N5CCCC6(CCC(n7nc(N8CCCc9cc(-c%10cnn(C)c%10)c(C(F)F)cc98)c8c7CCN(C(C)=O)C8)CC6)C5)C4)cc3)C2(C)C)ccc1C#N (stereo not drawn) [Compound 415, 4-[3-[9-[5-acetyl-3-[7-(difluoromethyl)-6-(1-methylpyrazol-4-yl)-3,4-dihydro-2H-quinolin-1-yl]-6,7-dihydro-4Hpyrazolo[4,3-c]pyridin-1-yl]-2-azaspiro[5.5]undecan-2-yl]azetidin-1-yl]-N-[3-(4-cyano-3-methoxy-phenoxy)-2,2,4,4-tetramethyl-cyclobutyl]benzamide] | 1 to 10 nM | 1 to 100 nM
COc1cc(OC2C(C)(C)C(NC(=O)c3ccc(N4CCN(CCn5cc(-c6cc7cccc(-c8nn(C9CCOCC9)c9c8CN(C(C)=O)CC9)c7cn6)cn5)CC4)cc3)C2(C)C)ccc1C#N (stereo not drawn) [Compound 249, 4-[4-[2-[4-[8-(5-acetyl-1-tetrahydropyran-4-yl-6,7-dihydro-4H-pyrazolo[4,3-c]pyridin-3-yl)-3-isoquinolyl]pyrazol-1-yl]ethyl]piperazin-1-yl]-N-[3-(4-cyano-3-methoxy-phenoxy)-2,2,4,4-tetramethyl-cyclobutyl]benzamide] | < 1 nM | 0.1 to 1 nM
CC(=O)N1CCc2c(c(-c3cccc4cc(-c5ccc(COc6ncc(C(=O)NC7C(C)(C)C(Oc8ccc(C#N)c(Cl)c8)C7(C)C)cn6)nc5)ncc34)nn2C2CCOCC2)C1 (stereo not drawn) [Compound 71, 2-[[5-[8-(5-acetyl-1-tetrahydropyran-4-yl-6,7-dihydro-4H-pyrazolo[4,3-c]pyridin-3-yl)-3-isoquinolyl]-2-pyridyl]methoxy]-N-[3-(3-chloro-4-cyano-phenoxy)-2,2,4,4-tetramethyl-cyclobutyl]pyrimidine-5-carboxamide] | < 1 nM | 1 to 100 nM
CC(=O)N1CCc2c(c(N3CCCc4cc(-c5cnn(C)c5)c(C(F)F)cc43)nn2C2CCN(C3CC4(CC(Oc5ncc(C(=O)NC6C(C)(C)C(Oc7ccc(C#N)c(Cl)c7)C6(C)C)cn5)C4)C3)CC2)C1 (stereo not drawn) [Compound 385, 2-[6-[4-[5-acetyl-3-[7-(difluoromethyl)-6-(1-methylpyrazol-4-yl)-3,4-dihydro-2H-quinolin-1-yl]-6,7-dihydro-4H-pyrazolo[4,3-c]pyridin-1-yl]-1-piperidyl]spiro[3.3]heptan-2-yl]oxy-N-[3-(3-chloro-4-cyano-phenoxy)-2,2,4,4-tetramethyl-cyclobutyl]pyrimidine-5-carboxamide] | < 1 nM | 0.1 to 1 nM
COc1cc(OC2C(C)(C)C(NC(=O)c3ccc(N4CCC(N5CCC(n6nc(N7CCCc8cc(-c9cnn(C)c9)c(C(F)F)cc87)c7c6CCN(C(C)=O)C7)CC5)C(F)(F)C4)cc3)C2(C)C)ccc1C#N (stereo not drawn) [Compound 302, 4-[4-[4-[5-acetyl-3-[7-(difluoromethyl)-6-(1-methylpyrazol-4-yl)-3,4-dihydro-2H-quinolin-1-yl]-6,7-dihydro-4H-pyrazolo[4,3-c]pyridin-1-yl]-1-piperidyl]-3,3-difluoro-1-piperidyl]-N-[3-(4-cyano-3-methoxy-phenoxy)-2,2,4,4-tetramethyl-cyclobutyl]benzamide] | < 1 nM | ≤ 0.1 nM
COc1cc(OC2C(C)(C)C(NC(=O)c3ccc(N4CCC(CCc5ccc(-c6cc7c(cc6C(F)F)N(c6nn(C8CCOCC8)c8c6CN(C(C)=O)CC8)CCC7)cn5)CC4)cc3)C2(C)C)ccc1C#N (stereo not drawn) [Compound 247, 4-[4-[2-[5-[1-(5-acetyl-1-tetrahydropyran-4-yl-6,7-dihydro-4H-pyrazolo[4,3-c]pyridin-3-yl)-7-(difluoromethyl)-3,4-dihydro-2H-quinolin-6-yl]-2-pyridyl]ethyl]-1-piperidyl]-N-[3-(4-cyano-3-methoxy-phenoxy)-2,2,4,4-tetramethyl-cyclobutyl]benzamide] | < 1 nM | 0.1 to 1 nM
CC(=O)N1CCc2c(c(N3CCCc4cc(-c5cnn(C)c5)c(C(F)F)cc43)nn2C2CCN(CCC3CCN(c4ncc(C(=O)NC5C(C)(C)C(Oc6ccc(C#N)c(Cl)c6)C5(C)C)cn4)CC3)CC2)C1 (stereo not drawn) [Compound 174, 2-[4-[2-[4-[5-acetyl-3-[7-(difluoromethyl)-6-(1-methylpyrazol-4-yl)-3,4-dihydro-2H-quinolin-1-yl]-6,7-dihydro-4H-pyrazolo[4,3-c]pyridin-1-yl]-1-piperidyl]ethyl]-1-piperidyl]-N-[3-(3-chloro-4-cyano-phenoxy)-2,2,4,4-tetramethyl-cyclobutyl]pyrimidine-5-carboxamide] | < 1 nM | ≤ 0.1 nM
CC(=O)N1CCc2c(c(N3CCCc4cc(-c5cnn(C)c5)c(C(F)F)cc43)nn2C2CCN([C@@H]3CCCN(c4ncc(C(=O)NC5C(C)(C)C(Oc6ccc(C#N)c(Cl)c6)C5(C)C)cn4)C3)CC2)C1 (stereo partly drawn) [Compound 398, 2-[(3R)-3-[4-[5-acetyl-3-[7-(difluoromethyl)-6-(1-methylpyrazol-4-yl)-3,4-dihydro-2H-quinolin-1-yl]-6,7-dihydro-4H-pyrazolo[4,3-c]pyridin-1-yl]-1-piperidyl]-1-piperidyl]-N-[3-(3-chloro-4-cyano-phenoxy)-2,2,4,4-tetramethyl-cyclobutyl]pyrimidine-5-carboxamide] | 1 to 10 nM | 1 to 100 nM
CC(=O)N1CCc2c(c(N3CCCc4cc(-c5cnn(C)c5)c(C(F)F)cc43)nn2C2CCN(C[C@@H]3CCN(c4ncc(C(=O)NC5C(C)(C)C(Oc6ccc(C#N)c(Cl)c6)C5(C)C)cn4)C[C@@H]3C)CC2)C1 (stereo partly drawn) [Compound 363] | < 1 nM | ≤ 0.1 nM
CC(=O)N1CCc2c(c(N3CCCc4cc(-c5cnn(C)c5)c(C(F)F)cc43)nn2C2CCN(C(C)CC3CCN(c4ncc(C(=O)NC5C(C)(C)C(Oc6ccc(C#N)c(Cl)c6)C5(C)C)cn4)CC3)CC2)C1 (stereo not drawn) [Compound 171, 2-[4-[2-[4-[5-acetyl-3-[7-(difluoromethyl)-6-(1-methylpyrazol-4-yl)-3,4-dihydro-2H-quinolin-1-yl]-6,7-dihydro-4H-pyrazolo[4,3-c]pyridin-1-yl]-1-piperidyl]propyl]-1-piperidyl]-N-[3-(3-chloro-4-cyano-phenoxy)-2,2,4,4-tetramethyl-cyclobutyl]pyrimidine-5-carboxamide] | < 1 nM | ≤ 0.1 nM
CC(=O)N1CCc2c(c(Nc3ccc(-c4cnn(C)c4)cc3F)nn2C2CCN(CCN3CCN(c4ncc(C(=O)NC5C(C)(C)C(Oc6ccc(C#N)c(Cl)c6)C5(C)C)cn4)CC3)CC2)C1 (stereo not drawn) [Compound 167, 2-[4-[2-[4-[5-acetyl-3-[2-fluoro-4-(1-methylpyrazol-4-yl)anilino]-6,7-dihydro-4H-pyrazolo[4,3-c]pyridin-1-yl]-1-piperidyl]ethyl]piperazin-1-yl]-N-[3-(3-chloro-4-cyano-phenoxy)-2,2,4,4-tetramethyl-cyclobutyl]pyrimidine-5-carboxamide] | < 1 nM | 0.1 to 1 nM
Cn1c(=O)n(C)c2cc(-c3cccc4cc(-c5ccc(CCC6CCN(c7ncc(C(=O)NC8C(C)(C)C(Oc9ccc(C#N)c(Cl)c9)C8(C)C)cn7)CC6)nc5)ncc34)ccc21 (stereo not drawn) [Compound 232, N-[3-(3-chloro-4-cyano-phenoxy)-2,2,4,4-tetramethyl-cyclobutyl]-2-[4-[2-[5-[8-(1,3-dimethyl-2-oxo-benzimidazol-5-yl)-3-isoquinolyl]-2-pyridyl]ethyl]-1-piperidyl]pyrimidine-5-carboxamide] | 10 to 100 nM | > 100 nM
